The data set in a line: In vivo pharmacokinetic profile after oral dosing in rats (plasma, LC-MS). Also on record: species or system Sprague-Dawley rats. The note with it: plasma prodrug I-2 after oral 10 mg/kg of prodrug example 2, male rats, lines = rat 1, 2, 3 and mean. Here is the method: The compound described in example 2 was prepared as a solution (20% EtOH, 40% PEG400, qc. Ampuwa) at a concentration appropriate for a 10 mg/kg (5 mL/kg) oral dose.
Three male Sprague-Dawley rats (200-300 g; Elevage Janvier, France) were used in this study. Due to size, each rat was housed in Macrolon Type 111 cages under conventional barrier conditions. The animals were fasted overnight prior to dosing and throughout the duration of the study but were permitted water ad libitum and were permitted food typically six hours postdosing. Control animals were placed under deep isoflurane anesthia and euthanized by bleeding (cardiac puncture) and their tissues removed and used as blank standards during sample analysis.
The group contained three rats. The group of rats received a 10 mg/kg (5 mL/kg) dose orally by gavage. At the conclusion of the study, rats were euthanized by bleeding (cardiac puncture) under deep isoflurane anesthesia.
Potassium-EDTA blood samples (approx. 200-300 μl) were withdrawn from the tail vein of each animal by butterfly catheter 0.25, 0.5, 1, 1.5, 2, 3, 4, 6, 8 and 24 hours after drug administration. Upon collection, the samples were promptly placed in an ice bath, and within 2 hours after sample collection they were centrifuged at about 4° C. Upon completion of the study, animals were put under deep anesthesia using isoflurane and euthanized by bleeding (cardiac puncture). The resulting plasma samples were placed in clean PP-tubes and stored in a freezer until analysis.
The plasma samples were assayed for the compound I and corresponding drug II using appropriate liquid chromatography mass spectrometry procedures.
Peak plasma concentrations (Cmax) and the time to peak plasma concentration (Tmax) were read directly from the plasma concentration data for each rat. The drug and the prodrug plasma concentration data were submitted to multi-exponential curve fitting using WinNonlin. The area under the plasma concentration-time curve from 0 to t hours (time of the last measurable plasma concentration) after dosing (AUC0-t) was calculated using the linear trapezoidal rule for the plasma concentration-time profiles. The residual area extrapolated to infinity, determined as the final measured plasma concentration (Ct) divided by the terminal elimination rate constant (B), was added to AUC0-t to produce the total area under the curve (AUC0-∞). The apparent total plasma clearance (CLp) was calculated by dividing the administered dose by the AUC0-∞. The initial volume of distribution (Vc) was calculated as the dose divided by the extrapolated concentration at time=0 (C0). […] The bioavailability was calculated as the dose-normalized AUC0∞, from the oral dose divided by the corresponding value derived from an intravenous dose.

The mark [1] stands for this setting: male, Sprague-Dawley, rat, plasma, po, 10 mg/kg.

Where “and” joins values, the source holds several entries; their conditions need not be identical. Identical values can stand only once.

For orientation: AUC means concentration integrated over time. One may read the Tmax as the time from dosing to the highest level. In the case of `NC(=O)C1(C(Cc2ccccc2)NC(=O)c2cccnc2-n2ccc(-c3cccc(C(F)(F)F)c3)n2)OCCO1` (stereo not shown) [Compound I-2, N-{1-[2-(Aminocarbonyl)-1,3-dioxolan-2-yl]-2-phenylethyl}-2-{3-[3-(trifluoromethyl)phenyl]-1H-pyrazol-1-yl}nicotinamide], the “prodrug AUC” value is 1315 ng·h/mL and 1485 ng·h/mL and 2297 ng·h/mL; the “prodrug Tmax” value was found to be 30 min. Further, under setting [1], the area under the curve (AUC) came to 1700 ng·h/mL and the time of peak concentration (Tmax) came out at 18 min.

(Values after patent publication US9150553B2, “Carboxamide compounds and their use as calpain inhibitors” (AbbVie Deutschland GmbH & Co. KG, priority 2007, dated 2015).)
